According to EP4660190A1, “PHARMACEUTICALLY ACCEPTABLE SALT OF COMPOUND AND PREPARATION METHOD THEREFOR” (Jiangsu Chia Tai Fenghai Pharmaceutical Co., Ltd., priority 2023, dated 2024):
Where two headings read alike, the source gives them in different places.

Tests used:
[1] = system: MPTP-induced Parkinson's disease model mice; assay: MPTP-induced mouse Parkinson's disease model, pole test; assay type: in vivo, C57 mice; details: mean ± SD
[2] = system: MPTP-induced Parkinson's disease model mice; assay: MPTP-induced mouse Parkinson's disease model, striatal dopamine (DOPA) detection; assay type: in vivo, C57 mice; details: striatum; positive control 20 mg/kg daily, four weeks; mean ± SD
[3] = system: MPTP-induced Parkinson's disease model mice; assay: MPTP-induced mouse Parkinson's disease model, TH-positive fiber content in the striatum; assay type: in vivo, C57 mice; details: positive control 20 mg/kg daily, four weeks, mean ± SD
[4] = system: MPTP-induced Parkinson's disease model mice; assay: MPTP-induced mouse Parkinson's disease model, TH-positive cell counts in the substantia nigra pars compacta; assay type: in vivo, C57 mice; details: positive control 20 mg/kg daily, four weeks, mean ± SD
[5] = system: MPTP-induced Parkinson's disease model mice; assay: MPTP-induced mouse Parkinson's disease model, grip strength test; details: positive control 20 mg/kg group; Before Modeling; mean ± SD
[6] = system: TDP-43-A315T transgenic mice of ALS model; assay: TDP-43-A315T ALS mice, muscle tone test; assay type: in vivo; details: 25 mg/kg p.o., Mean±SEM
[7] = system: TDP-43-A315T transgenic mice of ALS model; assay: TDP-43-A315T ALS mice, rotarod test; assay type: in vivo; details: 25 mg/kg p.o., Mean±SEM
[8] = system: rat spinal cord injury model; assay: Rat spinal cord injury model, BBB locomotor scores; assay type: in vivo, Male SD rats; details: 180 mg/kg single iv, mean±SD
Description: The scoring method is as follows: [table]

[9] = system: rat spinal cord injury model; assay: Rat spinal cord injury model, Neurofilament 200 (NF200) expression; assay type: in vivo, Male SD rats; details: 180 mg/kg single iv, mean±SD, n=6
[10] = system: rat spinal cord injury model; assay: Rat spinal cord injury model, pathological changes; details: 180 mg/kg single iv; spinal cord histopathology

CCC/C(O)=C1/C(=O)Oc2ccccc21.[Mg] [Example 5, (Z)-3-(1-hydroxybutylidene)benzofuran-2-one magnesium salt]
Appearance (0 h): White solid | Purity (0 h): 99.67% | Appearance (High Humidity 75%, 10 d): White solid | Purity (High Humidity 75%, 10 d): 99.83% | Appearance (High Humidity 92.5%, 10 d): White solid | Purity (High Humidity 92.5%, 10 d): 99.79% | Appearance (High temperature 40°C, 10 d): White solid | Purity (High temperature 40°C, 10 d): 99.82% | Appearance (High temperature 60°C, 10 d): White solid | Purity (High temperature 60°C, 10 d): 99.58% | Appearance (Light, 10 d): White solid | Purity (Light, 10 d): 99.72%

CC/C=C(\O)C1C(=O)Oc2ccccc21.[Ca] (centres unmarked) [Example 6, (Z)-3-(1-hydroxybutenyl)benzofuran-2-one calcium salt]
Appearance (0 h): White solid | Purity (0 h): 99.42% | Appearance (High Humidity 75%, 10 d): White solid | Purity (High Humidity 75%, 10 d): 99.56% | Appearance (High Humidity 92.5%, 10 d): White solid | Purity (High Humidity 92.5%, 10 d): 99.44% | Appearance (High temperature 40°C, 10 d): White solid | Purity (High temperature 40°C, 10 d): 99.58% | Appearance (High temperature 60°C, 10 d): White solid | Purity (High temperature 60°C, 10 d): 99.68% | Appearance (Light, 10 d): White solid | Purity (Light, 10 d): 99.43%

CCC/C(O)=C1/C(=O)Oc2ccccc21.NCCO [Example 8]
Appearance (0 h): White solid | Purity (0 h): 99.19% | Appearance (High Humidity 75%, 10 d): White solid | Purity (High Humidity 75%, 10 d): 99.71% | Appearance (High Humidity 92.5%, 10 d): White solid | Purity (High Humidity 92.5%, 10 d): 99.79% | Appearance (High temperature 40°C, 10 d): White solid | Purity (High temperature 40°C, 10 d): 99.75% | Appearance (High temperature 60°C, 10 d): White solid | Purity (High temperature 60°C, 10 d): 99.75% | Appearance (Light, 10 d): White solid | Purity (Light, 10 d): 99.78%

N[C@@H](Cc1ccc(O)c(O)c1)C(=O)O [Levodopa, reference compound]
Pole test results ([1]; positive control 20 mg/kg daily, four weeks, Study Endpoint): 8.76 ± 1.57 s | Pole test results ([1]; positive control 20 mg/kg group, Before Modeling): 9.40 ± 1.62 s | DOPA [2]: 1156.72±375.72^& ng/g | TH-Positive Fiber Content [3]: 536968.78±68050.46^& | TH-Positive Fiber Content ([3]; listed as levodopa): 536,968.78±68,050.46 | TH-Positive Cell counts [4]: 31.50±4.14^& | Grip Strength Test [5]: 272.61 ± 9.01 g

Nc1nc2ccc(OC(F)(F)F)cc2s1 [Riluzole, reference compound]
Muscle Tone ([6]; female mice, animal age 6 weeks): 145.2 ± 5.444 g | Muscle Tone ([6]; female mice, animal age 8 weeks): 177.8 ± 9.836 g | Muscle Tone ([6]; female mice, animal age 10 weeks): 133.6 ± 12.04 g | Muscle Tone ([6]; female mice, animal age 12 weeks): 161.5 ± 3.666 g | Muscle Tone ([6]; female mice, animal age 13 weeks): 146.4 ± 6.928 g | Muscle Tone ([6]; female mice, animal age 14 weeks): 143.1 ± 9.165 g | Muscle Tone ([6]; female mice, animal age 16 weeks): 149.0 ± 6.827 g | Muscle Tone ([6]; male mice, animal age 6 weeks): 144.0 ± 10.127 g | Muscle Tone ([6]; male mice, animal age 8 weeks): 152.4 ± 10.35 g | Muscle Tone ([6]; male mice, animal age 10 weeks): 150.5 ± 14.46 g | Muscle Tone ([6]; male mice, animal age 12 weeks): 145.4 ± 5.551 g | Muscle Tone ([6]; male mice, animal age 13 weeks): 147.8 ± 1.650 g | Muscle Tone ([6]; male mice, animal age 14 weeks): 129.2 ± 1.250 g | Rotarod performance ([7]; female mice, Dosing Schedule (weeks) 2): 269.8 ± 5.164 s | Rotarod performance ([7]; female mice, Dosing Schedule (weeks) 4): 258.8 ± 15.65 s | Rotarod performance ([7]; female mice, Dosing Schedule (weeks) 6): 275.3 ± 9.266 s | Rotarod performance ([7]; female mice, Dosing Schedule (weeks) 8): 272.3 ± 10.56 s | Rotarod performance ([7]; female mice, Dosing Schedule (weeks) 10): 238.4 ± 16.32 s | Rotarod performance ([7]; female mice, Dosing Schedule (weeks) 12): 252.3 ± 16.24 s | Rotarod performance ([7]; female mice, Dosing Schedule (weeks) 14): 270.6 ± 12.70 s | Rotarod performance ([7]; female mice, Dosing Schedule (weeks) 16): 255.9 ± 17.39 s | Rotarod performance ([7]; male mice, Dosing Schedule (weeks) 6): 250.8 ± 12.71 s | Rotarod performance ([7]; male mice, Dosing Schedule (weeks) 8): 236.4 ± 16.14 s | Rotarod performance ([7]; male mice, Dosing Schedule (weeks) 10): 234.0 ± 10.64 s | Rotarod performance ([7]; male mice, Dosing Schedule (weeks) 11): 215.6 ± 31.32 s | Rotarod performance ([7]; male mice, Dosing Schedule (weeks) 12): 202.4 ± 41.22 s | Rotarod performance ([7]; male mice, Dosing Schedule (weeks) 13): 135.32 ± 76.92 s

C[C@H]1C[C@@H]2[C@H]([C@@H](O)C[C@@]3(C)[C@H]2CC[C@]3(O)C(=O)COC(=O)CCC(=O)O)[C@@]2(C)C=CC(=O)C=C12 [methylprednisolone succinate]
BBB Locomotor Scores ([8]; 3 d after dosing): 0.1± 0.3 | BBB Locomotor Scores ([8]; 7 d after dosing): 2.8± 1.9 | BBB Locomotor Scores ([8]; 14 d after dosing): 5.7±4.5 | BBB Locomotor Scores ([8]; 28 d after dosing): 7.9±3.4 | BBB Locomotor Scores ([8]; Before dosing): 0± 0 | Positive Count (number per field of view) [9]: 22.2± 6.3 number per field of view | cases showing a reduction in lesions [10]: 3 out of 6

(Z)-3-(1-hydroxybutenyl)benzofuran-2-one meglumine salt [Example 9]
Appearance (0 h): White solid | Purity (0 h): 99.53% | Appearance (High Humidity 75%, 10 d): White solid | Purity (High Humidity 75%, 10 d): 99.01% | Appearance (High Humidity 92.5%, 10 d): Yellow oily liquid | Purity (High Humidity 92.5%, 10 d): 98.62% | Appearance (High temperature 40°C, 10 d): White solid | Purity (High temperature 40°C, 10 d): 99.45% | Appearance (High temperature 60°C, 10 d): White solid | Purity (High temperature 60°C, 10 d): 98.04% | Appearance (Light, 10 d): White solid | Purity (Light, 10 d): 99.60%

(Z)-3-(1-hydroxybutenyl)benzofuran-2-one potassium salt [Example 4]
Appearance (0 h): White solid | Purity (0 h): 99.41% | Appearance (High Humidity 75%, 10 d): White solid | Purity (High Humidity 75%, 10 d): 99.34% | Appearance (High Humidity 92.5%, 10 d): White solid | Purity (High Humidity 92.5%, 10 d): 99.47% | Appearance (High temperature 40°C, 10 d): White solid | Purity (High temperature 40°C, 10 d): 99.66% | Appearance (High temperature 60°C, 10 d): White solid | Purity (High temperature 60°C, 10 d): 99.58% | Appearance (Light, 10 d): White solid | Purity (Light, 10 d): 99.41%

(Z)-3-(1-hydroxybutenyl)benzofuran-2-one sodium salt [Example 2]
Impurities RRT1.41 (0 h): 0.10 | Impurities RRT1.47 (0 h): 0.11 | Impurities Total impurities (0 h): 0.21 | Impurities RRT1.41 (High Humidity 75%, 10 d): 0.12 | Impurities RRT1.47 (High Humidity 75%, 10 d): 0.10 | Impurities Total impurities (High Humidity 75%, 10 d): 0.22 | Impurities RRT1.41 (High temperature 60°C, 10 d): 0.14 | Impurities RRT1.47 (High temperature 60°C, 10 d): 0.09 | Impurities Total impurities (High temperature 60°C, 10 d): 0.23 | Impurities RRT1.41 (Light, 10 d): 0.07 | Impurities RRT1.47 (Light, 10 d): 0.09 | Impurities Total impurities (Light, 10 d): 0.16

(Z)-3-(1-hydroxybutylidene)benzofuran-2-one piperazine salt [Example 7]
Appearance (0 h): Light yellow solid | Purity (0 h): 99.59% | Appearance (High Humidity 75%, 10 d): Light yellow solid | Purity (High Humidity 75%, 10 d): 99.66% | Appearance (High Humidity 92.5%, 10 d): Light yellow solid | Purity (High Humidity 92.5%, 10 d): 99.54% | Appearance (High temperature 40°C, 10 d): Light yellow solid | Purity (High temperature 40°C, 10 d): 99.67% | Appearance (High temperature 60°C, 10 d): Light yellow solid | Purity (High temperature 60°C, 10 d): 99.72% | Appearance (Light, 10 d): Light yellow solid | Purity (Light, 10 d): 99.43%
